Earlier results in US20240228797A1, “LIQUID REPELLENT SLIPPERY SURFACES AND METHODS OF PREPARATION THEREOF” (priority 2021, published 2024).

- water solubility: extremely low water solubility
SMILES: CC(C)CCCC(C)CCCC(C)CCCCC(C)CCCC(C)CCCC(C)C (stereo not shown) [Squalane, squalane]
